Structures are written as SMILES. “Also recorded” adds a separate entry of the source.

The values below come from patent publication US11761966B2, “Nourin gene-based RNA molecular network: novel early diagnostic and prognostic biomarkers for coronary artery disease, unstable angina, STEMI/NSTEMI and heart failure” (Nour Heart, Inc., priority 2018, dated 2023).

Data set [1] can be described thus: Crossing of the blood-brain barrier.
The subject of a further data set is Yorkshire pigs. Put plainly: Aortic cross-clamping for 30 minutes in Yorkshire pigs (paraplegia). Format: in vivo, pig. The note with it: 30 minutes aortic cross-clamping, 4 days survival. An excerpt: The relationship between hypoxia and AD could open the avenue for effective preservation and pharmacological treatments of this neurodegenerative disease by using new therapeutic drugs like the novel bioenergetic drug, CCrP. CCrP provides protection of heart muscle against ischemic injury in CAD, UA, AMI, HF and cardiac surgical patients and thus save ischemic muscles from progressing to necrosis and heart failure, and will be protective against ischemic injury in stroke and AD. […] Since paraplegia following surgery of the descending thoracic aorta is a serious complication in adult and pediatric surgery, we tested the neuroprotective effect of Cyclocreatine in Yorkshire pigs which underwent 30 minutes of aortic cross-clamping then left to survive for 4 days. […] As indicated in Example 17, similar to heart tissue (Nourin-1), Nourin protein was quickly released within 5 minutes by brain (Nourin-2) and spinal cord (Nourin-3) in response to ischemia. Because of the great similarities between heart and brain and that they are both require high demand of ATP, CCrP will be as effective in preventing ischemic injury and restoring neurologic function in stroke and AD, similar to HF.

The test system of data set [2] is intact AMI dog model of LAD occlusion. Put plainly: Intact AMI dog model of LAD occlusion for 1 hour followed by reperfusion for 2 hours. Format: in vivo. Particulars: for myocardial cell injury (histology): vs control (saline) group. As to the method:
During ischemia, myocardial ATP levels decrease by 65% at 15 minutes and by 90% at 40 minutes, thus contractile performance in vivo decreases precipitously and ceases when only 20% of ATP and 75% of creatine phosphate are depleted. […] ATP synthesis continued during ischemia and its depletion was delayed resulting in over 85% preservation of pre-ischemic ATP level with a loss of only 15%, and 97% preservation of the CrP (loss of 3%) during ischemia. This significant preservation is crucial since ATP depletion of more than 20% ceases contractility. Control saline-treated hearts maintained only 66% of the ATP, with a loss of 34%, resulting in loss of reperfusion cardiac contractility. […] On the other hand, contractile function of control saline dogs was ceased completely after LAD occlusion and never recovered during reperfusion.

The test system of data set [3] is non-heartbeating dog model of heart transplantation. Put plainly: Non-heartbeating dog model of heart transplantation (warm ischemic arrest, ex vivo perfusion). Format: in vivo. As to the method: Dog hearts underwent 1 hour of global warm ischemic arrest then hearts were explanted and perfused ex vivo for an additional 4 hours with a cold lactated ringers solution containing Cyclocreatine, while control hearts received cold lactated ringers solution alone. […] Similarly, the myocardium of the CCr dog maintained a tissue pH of 7.04±0.1 during the warm ischemia period of 1 hour and throughout the ex vivo perfusion interval, which was close to its baseline level of 7.11. On the other hand, tissue pH in control hearts fell to a nadir of 6.00±0.25 during the induction of warm ischemia and never returned back to baseline levels during the ex vivo preservation period.

The subject of data set [4] is intact canine model of cold cardioplegic arrest. Put plainly: Intact canine model of cold cardioplegic arrest and aortic cross-clamping (bypass). The format is in vivo, dog. As to the method:
Dogs were injected intravenously with saline or CCr (500 mg/kg) for 1 hour before initiating the experiment.
Atrial fibrillation (AF) induces cardiac structural remodeling and there is a need to develop more mechanism-directed AF therapies that use the mitochondria as a novel potential therapeutic target in AF.

As to `NC1=NCCN1CC(=O)O` [Cyclocreatine], in data set [1], the “crossing of the blood-brain barrier” value is “crosses the blood-brain barrier; also recorded: crosses the blood brain barrier”. Besides, the “ability to stand and walk” value with Yorkshire pigs was “Majority of Cyclocreatine-treated animals were able to stand and walk”. In data set [2] (CCr 60 minutes before LAD occlusion for 1 hour, saline 66%), the “preservation of pre-ischemic ATP level” value is recorded as “over 85%”. Besides, the “loss of ATP” value in data set [2] (CCr 60 minutes before LAD occlusion, saline 34%) was found to be 15%. The “neutrophil accumulation into the myocardium” value in data set [2] (at the end of 2 hours reperfusion) is on record as “reduces neutrophil accumulation”. Further, in data set [2] (during ischemia), the “loss of CrP” value is recorded as 3% and the “preservation of the CrP” value came to 97%. Moreover, the “circulating Nourin protein in plasma” value in data set [2] (during the 2 hour reperfusion) was “inhibiting the levels of circulating Nourin protein”. The contractile function restored result in data set [2] (immediately at reperfusion and for an additional 2 hours) was “over 80%”. The “myocardial cell injury (histology)” value in data set [2] is listed as “significantly reduced myocardial cell injury”. Besides, the “myocardial cell injury (histology)” value in data set [2] (listed as CCr) was “markedly less myocardial cell injury”. Moreover, the “myocardial tissue pH” value in data set [3] (1 hour warm ischemia and ex vivo perfusion, baseline 7.11, control nadir 6.00±0.25) was determined as 7.04±0.1. Moreover, the “time to stop beating and develop asystole” value in data set [3] (after exsanguination, control average 2 minutes) is 9 min. Also, in data set [3] (compared to control), the “intracellular edema (diffusion weighted MRI)” value is recorded as “Reduced intracellular edema” and the “myocardial tissue lactic acidosis (spectroscopic MRI)” value was “Reduced myocardial tissue lactic acidosis”. In data set [3] (compared to controls), the “cell injury marker Malondialdehyde” value is on record as “Reduced level” and the “myocardial ATP content” value is recorded as “Three-fold increase”. For the same compound, the “reduction of Caspase enzyme activities, of baseline” value in data set [3] (control dogs 3.86-fold increase over baseline) worked out at 25%. In data set [4] (CCr 500 mg/kg IV, throughout 4 hours of reperfusion, control 60%), the “post-bypass cardiac output, of the baseline function” value is listed as “over 90%”. In addition, the “resumption of contractility during reperfusion” value in data set [4] (all control dogs required defibrillation, listed as CCr) is reported as “without arrhythmias; also recorded: without the need for defibrillation”.
